Assay results as given in US11952388B2, “Crystal form of tri-cycle compound and application thereof” (FUJIAN AKEYLINK BIOTECHNOLOGY CO., LTD., priority 2018, dated 2024).

Experiments:
[1] = tested on: proteins in CD-1 mouse plasma; experiment: Plasma protein binding rate (equilibrium dialysis); assay type: in vitro ADME, CD-1 mouse (mus musculus)
Experimental: (§1) Objectives of Experiment: to determine the binding rate of test compound to proteins in human and CD-1 mouse plasma
(§2) Experimental operation: 796 μL of blank plasma was taken from human and CD-1 mouse, and 4 μL of test compound working solution (400 μM) or warfarin working solution (400 μM) was added to make the final concentrations of both test compound and warfarin in the plasma sample 2 μM. The sample was mixed thoroughly. The final concentration of DMSO in the organic phase was 0.5%; 50 μt of plasma samples of test compound and warfarin was pipetted into the sample receiving plate (in triplicate), and immediately the corresponding volume of blank plasma or buffer was added to make the final volume of each sample 100 μL and the volume ratio of plasma:dialysis buffer 1:1. Then 400 μL of stop solution is added to these samples. These samples would be used as TO samples for determination of recovery and stability. […] All samples were analyzed by LC/MS/MS after protein precipitation, and the protein binding rate and recovery rate was calculated with the formula: % Unbound (unbound rate)=100*FC/TC, % Bound (bound rate)=100-% Unbound, % Recovery (recovery rate)=100*(FC+TC)/T0.

[2] = Pharmacokinetics of oral administration and intravenous injection in Beagle; assay type: in vivo, beagle dogs
Experimental: (§3) 3. Study on the Pharmacokinetics of Oral Administration and Intravenous Injection of the Compound Represented by Formula (I) in Beagle The compound represented by formula (I) was mixed with 5% DMSO/55% polyethylene glycol 400/40% aqueous solution, vortexed and sonicated to obtain an approximately clear solution of 1 mg/mL, which was then filtered by a microporous membrane for later use. Male beagle dogs weighed about 10 kg were selected and the candidate compound solution was administered intravenously at a dose of 1 mg/kg. The compound represented by formula (I) was mixed with 10% solutol aqueous solution, vortexed and sonicated to obtain an approximately clear solution of 2 mg/mL, which was then filtered through a microporous membrane for later use. Male beagle dogs weighed about 10 kg were selected and the candidate compound solution was orally administered at a dose of 10 mg/kg. Whole blood was collected at a certain period of time to prepare plasma, drug concentration was analyzed by LC-MS/MS method, and pharmacokinetic parameters was calculated by Phoenix WinNonlin software (Pharsight, USA). Note: T1/2 means half-life; Vdss means apparent volume of distribution; Cl means clearance rate; AUC0_last means area below the drug-time curve; Tmax means peak time; Cmax means peak concentration; F % means oral bioavailability; iv means intravenous injection; PO means oral administration; mpk means mg/kg.

[3] = Pharmacokinetics of oral administration and intravenous injection in SD rats; assay type: in vivo; settings: male, rat, plasma
Experimental: as §3, with “2. Study” for “3. Study”, “in SD Rats” for “in Beagle”, “Male SD rats aged 7 to” for “Male beagle dogs weighed about”, “10 weeks” for “10 kg”, “of 1” for “of 2”

proteins in human plasma = experiment: Plasma protein binding rate (equilibrium dialysis); assay type: in vitro ADME
Experimental: as §1, §2

[4] = Pharmacokinetics of oral administration and intravenous injection in Balb/c mice; assay type: in vivo; settings: female, mouse, plasma
Experimental: as §3, with “1. Study” for “3. Study”, “in Balb/c Mice” for “in Beagle”, “use. Female Balb/c mice aged 7 to” for “use. Male beagle dogs weighed about”, “10 weeks” for “10 kg”, “solutol (polyethylene glycol-15 hydroxystearate)” for “solutol”, “of 1” for “of 2”

[5] = male, beagle, dog, plasma, 1 mg/kg, Dogs, iv 1 mpk
[6] = male, beagle, dog, plasma, 10 mg/kg, Dogs, po 10 mpk
[7] = 1 mg/kg, iv 1 mpk, read-out: AUC0-last
[8] = 1 mg/kg, iv 1 mpk, read-out: Vdss
[9] = 10 mg/kg, po 10 mpk, read-out: AUC0-24h

For `Cc1cc2n(c1)S(=O)(=O)c1ccc(C(=O)NCC[C@H]3COCCO3)cc1NC2=O` [compound represented by formula (I)], the “binding rate to plasma proteins (conclusion in words)” value [1] was “lower binding rate”, the “Binding rate of plasma protein” value ([1]; 2 μM) was 94% and the “pharmacokinetics (conclusion in words)” value ([2]; Beagle) was “good single or partial index of pharmacokinetics”. The clearance [2, 5] was 0.936 L/h/kg, the half-life [2, 5] was 2.87 h and the AUC(0-t) ([2]; male, beagle, dog, plasma, 1 mg/kg, Dogs, iv 1 mpk, read-out: AUC0-last) was 2.68 µM·h. For the same molecule, the Vd ([2]; male, beagle, dog, plasma, 1 mg/kg, Dogs, iv 1 mpk, read-out: Vdss) was 2.95 L/kg, the Cmax [2, 6] was 5.85 µM and the Tmax [2, 6] was 1.67 h. The bioavailability [2, 6] was 126%, the AUC(0-t) ([2]; male, beagle, dog, plasma, 10 mg/kg, Dogs, po 10 mpk, read-out: AUC0-24h) was 33.2 µM·h and the clearance ([3]; 1 mg/kg, iv 1 mpk) was 0.51 L/h/kg. The half-life ([3]; 1 mg/kg, iv 1 mpk) was 0.95 h, the AUC(0-t) [3, 7] was 4.82 µM·h and the Vd [3, 8] was 0.56 L/kg. It also gave a Cmax ([3]; 10 mg/kg, po 10 mpk) of 8.57 µM, a Tmax ([3]; 10 mg/kg, po 10 mpk) of 0.5 h and a bioavailability ([3]; 10 mg/kg, po 10 mpk) of 65%. For the same molecule, the AUC(0-t) [3, 9] was 31.1 µM·h, the “binding rate to plasma proteins (conclusion in words)” value (proteins in human plasma) was “lower binding rate” and the “Binding rate of plasma protein” value (proteins in human plasma; 2 μM) was 81%. The clearance ([4]; 1 mg/kg, iv 1 mpk) was 0.51 L/h/kg, the half-life ([4]; 1 mg/kg, iv 1 mpk) was 1.2 h and the AUC(0-t) [4, 7] was 4.67 µM·h. For the same molecule, the Vd [4, 8] was 0.45 L/kg, the Cmax ([4]; 10 mg/kg, po 10 mpk) was 19.9 µM and the Tmax ([4]; 10 mg/kg, po 10 mpk) was 0.5 h. The bioavailability ([4]; 10 mg/kg, po 10 mpk) was 70% and the AUC(0-t) [4, 9] was 32.5 µM·h.
